Source: patent US4870097A, “Pharmaceutical use of derivatives of tryptophan” (priority 1984, dated 1989)

Legend:
[1] = tested on: guinea pig gall bladder contracted with CCK-8; assay: Anti-CCK activity on guinea pig gall bladders in vitro; format: biochemical; settings: CCK-8 10 ng/ml, concentration antagonising 50% of contracting effect
Summary of the method: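 Longitudinal gall bladder strips in Krebs at 32° C, gassed with O2/CO2 95:5, were contracted with CCK-8 at 10 ng/ml and contractions recorded isometrically via force transducer. ED50 in mcg/ml is the compound concentration antagonising 50% of CCK contraction, derived by regression over at least three experiments.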

[2] = tested on: analgesic activity of morphine; assay: Tail Flick Test: increase in the analgesic effect of morphine; format: in vivo, rats; settings: for percentage variation in the latency of the pain sensation, 10' / percentage variation in the latency of the pain sensation, 20' / percentage variation in the latency of the pain sensation, 30' / percentage variation in the latency of the pain sensation, 45' / percentage variation in the latency of the pain sensation, 60' / percentage variation in the latency of the pain sensation, 90' / M(10'-90') average percentage variation: compound 10 mg/kg i.p. + morphine 2 mg/kg (row Morphine: alone); for percentage variation in the latency of the pain sensation, 10' / percentage variation in the latency of the pain sensation, 20' / percentage variation in the latency of the pain sensation, 30' / percentage variation in the latency of the pain sensation, 45' / percentage variation in the latency of the pain sensation, 60' / percentage variation in the latency of the pain sensation, 90': ± S.E.; for M(10'-90') average percentage variation: mean 10'-90'; for Potency ratio relative to morphine alone: rat, in vivo
Summary of the method: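 Male non-fasted rats, 150-200 g; heat source (75 °C) on tail, latency to tail movement timed, 8 s cut-off. Measured before and 10, 20, 30, 45, 60, 90 min after analgesic dosing; percentage variation per animal, averaged over groups of five.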

[3] = tested on: tolerance induced by morphine; assay: Antagonism to the development of tolerance to repeated administration of morphine HCl (tail flick); format: in vivo, rats
Method: Several of the compounds of the invention were examined to determine any capacity to antagonise the development of tolerance induced by morphine. Groups of six male rats having a weight of about 200-250 were used.
At intervals of 24 hours from the first treatment (time 0), each animal (except for the control group treated with a physiological solution) received 3 mg/kg of morphine hydrochloride i.p. together with 3 mg/kg i.p. of the compounds indicated (with the exception of the group treated solely with morphine).
The determination of the threshold for the pain stimulus was effected at 15°, 30', 45' and 60' intervals from the treatment by the "tail flick" test.

[4] = tested on: colon of rabbits stimulated with CCK-8; assay: Antispastic activity in the colon of rabbits stimulated with CCK-8; format: in vivo, rabbit; set-up: Antispastic activity, experiment 1 / Antispastic activity, experiment 2 / Antispastic activity, experiment 3: unit not given here; settings: CCK 100 ng/kg; for ED50: Oryctolagus cuniculus, iv, three experiments
Method: The abdomen of an anaesthetised rabbit is cut open to expose the transverse colon. A balloon full of water is inserted at the point established and connected to a pressure transducer by means of a polyethylene cannula filled with H2 O.
The optimum sensitivity in relation to the physiological contractions is fixed and the products are administered through the femoral veins. Contractions are induced by the administration of 100 ng/kg of CCK.

[5] = tested on: analgesic activity of DALA; assay: Tail Flick test: increase in the analgesic activity of DALA (i.c.v.); format: in vivo, rats; settings: b802: 0.001 g/kg
Method: In order to check one of the possible mechanisms for the action of the compounds of the invention, that is, their possible inhibition of the enzymatic degradation of endogenous enkephalins, the following experiment was carried out:
A cannula was implanted in the right lateral ventricle of male rats having a weight of 150-200 g (groups of five animals were used) in order to allow the intracerebroventricular (i.c.v.) administration of drugs according to the method of Noble et al (Life Science 6, (1970) 281-291).
The animals were subsequently treated (i.c.v.) with 3 μg of D-ala-methionine-enkephalinamide (DALA) immediately after an injection (i.c.v.) of the compounds under study at the doses given in Table 4. Analgesia was tested for by the Tail Flick method already mentioned, at the times

[6] = days 0-7, 3 mg/kg + morphine (row Morphine: alone)

Row | SMILES | Anti CCK-8 activity, ED50 [1] | percentage variation in the latency of the pain sensation, 10' [2] [%] | percentage variation in the latency of the pain sensation, 20' [2] [%] | percentage variation in the latency of the pain sensation, 30' [2] [%] | percentage variation in the latency of the pain sensation, 45' [2] [%] | percentage variation in the latency of the pain sensation, 60' [2] [%] | percentage variation in the latency of the pain sensation, 90' [2] [%] | M(10'-90') average percentage variation [2] [%] | Potency ratio relative to morphine alone [2] | Antispastic activity, experiment 1 ([4]; 1 mg/kg iv) | Antispastic activity, experiment 2 ([4]; 1 mg/kg iv) | Antispastic activity, experiment 3 ([4]; 1 mg/kg iv) | Antispastic activity, experiment 1 ([4]; 3 mg/kg iv) | Antispastic activity, experiment 2 ([4]; 3 mg/kg iv) | Antispastic activity, experiment 3 ([4]; 3 mg/kg iv) | Antispastic activity, experiment 1 ([4]; 10 mg/kg iv) | Antispastic activity, experiment 2 ([4]; 10 mg/kg iv) | ED50 [4] [mg/kg] | further results
1 | O=C(N[C@@H](Cc1c[nH]c2ccccc12)C(=O)O)OCc1ccc(F)cc1 [Compound 1, N-p-fluorocarbobenzoxy-L-tryptophan] | 59.9 µg/mL | 37.6 ± 12.9 | 89.2 ± 7.3 | 96.4 ± 3.5 | 82.6 ± 12.5 | 87.2 ± 7.8 | 40.6 ± 17.7 | 72.3 | 2.43 |  |  |  |  |  |  |  |  |  | percentage variation in the latency time, day 0 ([3]; day 0, 3 mg/kg i.p. + morphine HCl 3 mg/kg i.p. (row Morphine: alone)): 44.25%; percentage variation in the latency time, day 1 ([3]; day 1, 3 mg/kg i.p. + morphine HCl 3 mg/kg i.p. (row Morphine: alone)): 69.33%; percentage variation in the latency time, day 2 ([3]; day 2, 3 mg/kg i.p. + morphine HCl 3 mg/kg i.p. (row Morphine: alone)): 69.21%; percentage variation in the latency time, day 3 ([3]; day 3, 3 mg/kg i.p. + morphine HCl 3 mg/kg i.p. (row Morphine: alone)): 54.03%; percentage variation in the latency time, day 4 ([3]; day 4, 3 mg/kg i.p. + morphine HCl 3 mg/kg i.p. (row Morphine: alone)): 21.91%; percentage variation in the latency time, day 5 ([3]; day 5, 3 mg/kg i.p. + morphine HCl 3 mg/kg i.p. (row Morphine: alone)): 33.35%; percentage variation in the latency time, day 6 ([3]; day 6, 3 mg/kg i.p. + morphine HCl 3 mg/kg i.p. (row Morphine: alone)): 36.44%; percentage variation in the latency time, day 7 ([3]; day 7, 3 mg/kg i.p. + morphine HCl 3 mg/kg i.p. (row Morphine: alone)): 16.1%; Area subtended (1) [3, 6]: 342.6 Effect-Day; regression line % Effect versus Day [3, 6]: % Effect = - 5.97 Day + 63.96; Area 1 / Area Morphine ([3]; days 0-7, 3 mg/kg + morphine, ratio to morphine alone): 2.44
2 | O=C(N[C@@H](Cc1c[nH]c2ccccc12)C(=O)O)OCc1ccc(Cl)cc1 [Compound 2] | 13.5 µg/mL | 50.0 ± 14.9 | 25.0 ± 26.0 | 75.6 ± 17.6 | 23.7 ± 19.6 | 41.0 ± 20.3 | 43.6 ± 16.4 | 44.6 | 1.50 | -10.9 | -16.8 | -38.8 | -31.4 | -56.6 | -41.5 | -85.9 | -74.4 | 4.67 | Antispastic activity, experiment 3 ([4]; 10 mg/kg iv): -90.2
3 | CC(C)c1ccc(C(=O)N[C@@H](Cc2c[nH]c3ccccc23)C(=O)O)cc1 [Compound 20] | 17.9 µg/mL | 20.0 ± 12.8 | 33.1 ± 22.0 | 37.6 ± 18.9 | 37.5 ± 18.8 | 54.4 ± 19.3 | 33.2 ± 18.1 | 36.0 | 1.21 | -30.8 | -44.2 | -34.7 | -36.0 | -60.3 | -59.0 | -82.5 | -100.0 | 3.41 | Antispastic activity, experiment 3 ([4]; 0.3 mg/kg iv): -12.8
4 | N#Cc1cccc(C(=O)N[C@@H](Cc2c[nH]c3ccccc23)C(=O)O)c1 [Compound 32] | IN (inactive up to 400 mcg/ml) | 18.7 ± 6.7 | 60.7 ± 15.5 | 63.7 ± 16.3 | 63.7 ± 16.3 | 45.8 ± 16.1 | 22.8 ± 12.2 | 43.0 | 1.44 |  |  |  |  |  |  |  |  |  | 
5 | CCCN(CCC)C(=O)C(CCC(=O)O)NC(=O)c1ccccc1 (centres unmarked) [proglumide, reference compound] |  |  |  |  |  |  |  |  |  |  |  |  |  |  |  |  |  |  | potentiating action on the analgesic effect of DALA (in words) [5]: highly significant
